# Measurements reported in PubChem BioAssay AID1902 (Broad Institute, 2009).
# The source made the active and inactive calls.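 How the source made its calls: active means EC50 no more than a set limit of log units above the highest dose; inactive means the rest.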
# Target: S. pyogenes SKKanGAS, kanamycin survival, BacTiterGlo, 6 h
# Test: S. pyogenes SKKanGAS kanamycin growth inhibitors – SKKanGAS strain, luminescence, dose confirmation, streptokinase promoter inhibitor project, dose response (AID 1902);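 further: lower survival reflects blocked streptokinase promoter driving kanamycin resistance gene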
row,SMILES,EC50
1,CCc1c(C)nc2cc(-c3ccc(OC)c(OC)c3)nn2c1N1CCC(C)CC1,7.56 µM
2,FC(F)(F)c1cc(CCN2C(=S)NC[C@@H]2CC2CCCCC2)cc(C(F)(F)F)c1,3.7 µM
3,COc1ccc2nc(-n3c(O)c(C4=c5ccccc5=NC4=O)[nH]c3=S)sc2c1,0.508 µM
4,c1ccc(-c2nc(C3CCCCC3)c3sccc3n2)cc1,3.31 µM
5,CCOC(=O)N1CCC(N2Cc3cccc(C(=O)Nc4ccc(F)cc4)c3C2=O)CC1,5.9 µM
6,COc1ccc(/C=C/c2ccc3cccc(O)c3n2)c(OC)c1OC,3.27 µM
7,CCCCCCCCCCCCOC(=O)C[N+](C)(C)C,3.02 µM
8,CCn1nc(NC(=O)c2ccncc2)c2cc3cc(C)ccc3nc21,2.66 µM
9,Cc1sc2cc3c(c(C(=O)c4ccccc4)[n+]2c1C)-c1cccc2cccc-3c12,6.66 µM
10,O=C(CSc1nc(-c2ccc(Cl)cc2)[nH]c(=O)n1)Nc1cccc(Cl)c1,2.35 µM
11,O=C(O)c1ccc(NC(=S)NC(=O)c2cccc(COc3ccccc3)c2)cc1,4.45 µM
12,CCN(CC)S(=O)(=O)c1ccc(N2CCOCC2)c(NC(=O)C2CSC3(C)CCC(=O)N23)c1 (stereo not drawn),> 15 µM (inactive)
13,Cc1ccc(Nc2nc3nonc3[nH]c2=O)cc1Cl,2.54 µM
14,CC(C)[C@@H](C(=O)NC1CCCC1)N1C(=O)N2CCc3c([nH]c4ccccc34)[C@@]2(C)C1=O,> 15 µM (inactive)
15,Oc1c(CN2CCc3ccccc3C2)cc(Cl)c2cccnc12,2.15 µM
16,S=C(NCCSCc1ccc(Cl)c(Cl)c1)Nc1ccccc1,3.71 µM
17,Cc1ccc(N2C(=O)C3CC(c4ccccc4)=C4C5C=CC(C6C(=O)N(c7ccc(C)cc7)C(=O)C56)C4C3C2=O)cc1 (stereo not drawn),1.39 µM
18,Oc1c(Cl)cc(Cl)c2cccnc12,0.148 µM
19,CCN(CC(=O)NCC1CCCO1)S(=O)(=O)c1ccc(Cl)cc1 (stereo not drawn),> 15 µM (inactive)
20,c1ccc(CNc2nc(-c3ccccn3)nc3ccccc23)cc1,0.418 µM
21,CCCOc1ccc(C(=O)NC(=S)N2CCN(c3cc4c(cc3F)c(=O)c(C(=O)O)cn4CC)CC2)cc1,2.34 µM
22,CC(C)(C)c1cc(NCc2ccccn2)n2ncc(-c3ccc(Cl)cc3)c2n1,1.34 µM
23,CC(C)(C)c1ccc(C(=O)NCc2nnc(SCC(=O)NC3CCCC3)o2)cc1,> 15 µM (inactive)
24,COc1cc(OC)cc(C(=O)Nc2nc(-c3ccccc3)c(-c3ccccc3)o2)c1,0.629 µM
25,COc1ccc2cc(C(=O)NCc3ccccc3)c(=Nc3ccc(C(=O)O)cc3)oc2c1,3.83 µM
26,CCOC(=O)c1c(C)[nH]c(C(=O)N/N=C/c2cc([N+](=O)[O-])ccc2O)c1C,4.39 µM
27,Cc1cccc(Oc2nc(-c3ccncc3)nc3ccccc23)c1,8.04 µM

row,SMILES,EC50
1,Clc1ccccc1Sc1ccc(-c2ccccn2)s1,5.48 µM
2,Cc1cc(C)c(C)c(OCCCOc2cccc3cccnc23)c1,13.5 µM
3,CC(C)(C)OC(=O)[C@H](Cc1ccccc1)NC(=O)c1[nH]cnc1C(=O)Nc1ccc(Cl)cc1,3.52 µM
4,Cc1ccc(SCc2cc(=O)[nH]c(SCC(=O)Nc3cc(Cl)ccc3Cl)n2)cc1,6.79 µM
5,O=C(NNC(=O)c1ccccc1OCc1ccc(F)cc1)c1ccccc1O,2.5 µM
6,CCOC(=O)c1sc(Nc2nc3ccc(OC)cc3s2)cc1C,2.95 µM
7,COc1ccc(OC)c(/C=N/n2c(-c3n[nH]c4c3CCC4)n[nH]c2=S)c1,> 15 µM (inactive)
8,C=CCn1c(N2C(=O)CC(Cc3ccccc3)C2=O)nc2ccccc21 (stereo not drawn),4.5 µM
9,O=[N+]([O-])/C=C/c1c(OCc2ccccc2)ccc2ccccc12,1.63 µM
10,COc1cc(C(=O)NNC(=S)NC(=O)c2ccccc2C)cc(OC)c1OC,1.88 µM
11,c1ccc(CCNc2nc(-c3ccccn3)nc3ccccc23)cc1,0.884 µM
12,COc1ccc(-c2nc(NC(C)=O)sc2-c2ccc(OC)cc2)cc1,4.05 µM
13,CCOc1cc(/C=N/Nc2cccc(C(=O)O)c2)ccc1OC(=O)c1ccccc1,5.18 µM
14,COc1ccc(-c2nnc(NC(=O)c3ccc(S(=O)(=O)N4CCCc5ccccc54)cc3)o2)cc1,0.149 µM
15,CC(C)c1ccccc1OCC(=O)NC1CCCc2ccccc21 (stereo not drawn),11.7 µM
16,Cc1ccc(C23CC4CC(CC(C(=O)N5CCN(C)CC5)(C4)C2)C3)cc1,> 15 µM (inactive)
17,CC(C)(C)OC(=O)[C@H](Cc1ccccc1)NC(=O)c1[nH]cnc1C(=O)Nc1cccc(Cl)c1,2.4 µM
18,CC(C)(C)c1ccc(C(=O)N2CCN(C(=O)c3ccco3)CC2)cc1,> 15 µM (inactive)
19,Cc1ccc(-n2cc3c(-c4cccc(Br)c4)nnc(C)c3n2)cc1,7.09 µM
20,Cc1ccc(C)c(NC(=O)CSc2nc3nc(-c4cccs4)cc(C(F)(F)F)c3c(=O)[nH]2)c1,3.18 µM
21,O=C(CNC(=O)c1ccccc1Br)N/N=C\c1cc([N+](=O)[O-])cc(Br)c1O,8.11 µM
22,Cc1cc(Cl)ccc1NC(=S)NCCC(c1ccccc1)c1ccccc1,11.1 µM
23,Cc1nn(Cc2ccc(Cl)cc2Cl)c(C)c1NC(=O)NC12CC3CC(CC(C3)C1)C2,14.2 µM
24,CCc1oc2ccccc2c1C(=O)c1cc(Br)c(O)c(Br)c1,6.55 µM
25,Cc1ccc(-c2[nH]nc(N)c2N=Nc2ccccc2C)cc1,1.07 µM
26,O=c1c2ccccc2nc(COc2ccccc2)n1/N=C/c1cc([N+](=O)[O-])ccc1O,1.73 µM
